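The compound was tested at five concentrations on cells cultured in 96-well plates, with a 48-hour exposure period. GI50 marks 50% less growth.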 The source made the active and inactive calls. No stated cut-off is given here; in the data, active = GI50 up to about 1.1 µM and inactive = higher.
How the values were obtained:
Assay in all cases: NCI-60 cell line screen, 48 h
CCRF-CEM = test system: CCRF-CEM
OVCAR-4 = test system: OVCAR-4
SNB-75 = test system: SNB-75
SW-620 = test system: SW-620
A498 = test system: A498
Malme-3M = test system: Malme-3M
LOX IMVI = test system: LOX IMVI
EKVX = test system: EKVX
TK-10 = test system: TK-10
K562 = test system: K562
SK-OV-3 = test system: SK-OV-3
IGROV-1 = test system: IGROV-1
OVCAR-8 = test system: OVCAR-8
MCF7 = test system: MCF7
SK-MEL-5 = test system: SK-MEL-5
HOP-62 = test system: HOP-62
MDA-N = test system: MDA-N
MDA-MB-231 = test system: MDA-MB-231
PC-3 = test system: PC-3

Structure (SMILES)	GI50 (CCRF-CEM)	GI50 (OVCAR-4)	GI50 (SNB-75)	GI50 (SW-620)	GI50 (A498)	GI50 (Malme-3M)	GI50 (LOX IMVI)	GI50 (EKVX)	GI50 (TK-10)	GI50 (K562)	GI50 (SK-OV-3)	GI50 (IGROV-1)	GI50 (OVCAR-8)	GI50 (MCF7)	GI50 (SK-MEL-5)	GI50 (HOP-62)	GI50 (MDA-N)	GI50 (MDA-MB-231)	GI50 (PC-3)
O=NN(CCCl)C(=O)NC1CCC(CC2CCC(NC(=O)N(CCCl)N=O)CC2)CC1 (configuration not stated)	1.05 µM (active)	28.8 µM (inactive)	16.6 µM (inactive)	23.3 µM (inactive)	31.4 µM (inactive)	32.3 µM (inactive)	0.91 µM (active)	> 63.4 µM (inactive)	32.5 µM (inactive)	2.26 µM (inactive)	2.23 µM (inactive)	29.9 µM (inactive)	19.9 µM (inactive)	0.316 µM (active)	32 µM (inactive)	1.97 µM (inactive)			
O=C1CCCn2c3ccccc3c3ccnc1c32	27.8 µM (inactive)	49 µM (inactive)	34.3 µM (inactive)	41.1 µM (inactive)	14.9 µM (inactive)	35.1 µM (inactive)	36.1 µM (inactive)	12.2 µM (inactive)		40.5 µM (inactive)	44.7 µM (inactive)	34.2 µM (inactive)	34.6 µM (inactive)	36.1 µM (inactive)	34 µM (inactive)	43.1 µM (inactive)			
Nc1cc2c(cc1[N+](=O)[O-])[nH]c1c(-c3ccccc3)nccc12	7.71 µM (inactive)	12.8 µM (inactive)	19.2 µM (inactive)	25.9 µM (inactive)	30.5 µM (inactive)	17.4 µM (inactive)	13.6 µM (inactive)	21.7 µM (inactive)		7.57 µM (inactive)	10.9 µM (inactive)	8.65 µM (inactive)	30.8 µM (inactive)	26 µM (inactive)	13.5 µM (inactive)	15.2 µM (inactive)			
C/C=C(/C)C(=O)O[C@@H]1c2c(C)coc2C[C@H]2CC[C@H](O)[C@H](C)[C@]21C	36.7 µM (inactive)	39.4 µM (inactive)		24 µM (inactive)		26.9 µM (inactive)	49.4 µM (inactive)	> 100 µM (inactive)	64.6 µM (inactive)	38 µM (inactive)	> 100 µM (inactive)	43.3 µM (inactive)	42.5 µM (inactive)	26.3 µM (inactive)	35.6 µM (inactive)	> 100 µM (inactive)	50 µM (inactive)	71.6 µM (inactive)	97.7 µM (inactive)
Cc1cc(O)nc(NN2C(Cl)C(=O)C2c2cccc(O)c2)n1 (configuration not stated)	4.63 µM (inactive)	> 100 µM (inactive)	1.64 µM (inactive)	12.4 µM (inactive)			4.53 µM (inactive)	17.9 µM (inactive)	42.5 µM (inactive)	2.7 µM (inactive)		4.8 µM (inactive)	7.21 µM (inactive)		12.2 µM (inactive)	4.49 µM (inactive)			
COc1ccc(/C(=N\NC(=O)NN)C(c2ccc(OC)cc2)C2(O)C(=O)Nc3c(Cl)cc(Cl)cc32)cc1 (configuration not stated)	13.8 µM (inactive)	> 100 µM (inactive)	> 100 µM (inactive)	> 100 µM (inactive)		> 100 µM (inactive)	99.3 µM (inactive)	> 100 µM (inactive)	> 100 µM (inactive)			> 100 µM (inactive)	> 100 µM (inactive)		> 100 µM (inactive)	> 100 µM (inactive)			
Cc1cccc2c1C(=O)OC2(c1cccc2ccccc12)c1cccc2ccccc12	> 100 µM (inactive)	89.9 µM (inactive)	21.3 µM (inactive)	> 100 µM (inactive)	> 100 µM (inactive)	> 100 µM (inactive)	> 100 µM (inactive)	> 100 µM (inactive)	> 100 µM (inactive)	> 100 µM (inactive)	> 100 µM (inactive)	> 100 µM (inactive)	40.2 µM (inactive)		> 100 µM (inactive)	27.4 µM (inactive)			
O=[N+]([O-])c1cccc(C2=NOC3CCCC23)c1 (configuration not stated)	> 100 µM (inactive)	> 100 µM (inactive)	> 100 µM (inactive)	> 100 µM (inactive)	> 100 µM (inactive)	> 100 µM (inactive)		> 100 µM (inactive)	> 100 µM (inactive)	> 100 µM (inactive)	> 100 µM (inactive)	> 100 µM (inactive)	> 100 µM (inactive)		> 100 µM (inactive)	> 100 µM (inactive)			
CCN(CC)C(=S)SS(C)(=O)=O		19.6 µM (inactive)	29.6 µM (inactive)	18.5 µM (inactive)		26.7 µM (inactive)	13.6 µM (inactive)	37.2 µM (inactive)	18.3 µM (inactive)	< 0.01 µM (active)	75.7 µM (inactive)	> 100 µM (inactive)	19.8 µM (inactive)		25.5 µM (inactive)	18.7 µM (inactive)			
COc1ccc(C2=CC(c3ccccc3)n3nnnc3N2)cc1 (configuration not stated)	> 100 µM (inactive)			> 100 µM (inactive)			> 100 µM (inactive)			> 100 µM (inactive)	> 100 µM (inactive)	> 100 µM (inactive)	> 100 µM (inactive)	> 100 µM (inactive)	> 100 µM (inactive)	40.6 µM (inactive)		> 100 µM (inactive)	> 100 µM (inactive)
C/C=C/CP(=O)(c1ccccc1)c1ccccc1	> 100 µM (inactive)	> 100 µM (inactive)	> 100 µM (inactive)	> 100 µM (inactive)	> 100 µM (inactive)	> 100 µM (inactive)	> 100 µM (inactive)	> 100 µM (inactive)	> 100 µM (inactive)	> 100 µM (inactive)	> 100 µM (inactive)	> 100 µM (inactive)	> 100 µM (inactive)		> 100 µM (inactive)	> 100 µM (inactive)			
CCOC(OCC)(OCC)C(Br)CC (configuration not stated)	28.2 µM (inactive)	> 100 µM (inactive)	> 100 µM (inactive)		> 100 µM (inactive)	> 100 µM (inactive)	88.1 µM (inactive)	> 100 µM (inactive)	> 100 µM (inactive)	> 100 µM (inactive)	> 100 µM (inactive)	> 100 µM (inactive)	> 100 µM (inactive)		> 100 µM (inactive)	> 100 µM (inactive)			
c1ccc(COc2ccc(CC3SCCCS3)cc2)cc1	43.6 µM (inactive)	> 100 µM (inactive)		> 100 µM (inactive)		> 100 µM (inactive)	> 100 µM (inactive)	> 100 µM (inactive)	> 100 µM (inactive)	52.5 µM (inactive)		66.2 µM (inactive)	> 100 µM (inactive)	> 100 µM (inactive)	35.2 µM (inactive)	> 100 µM (inactive)	> 100 µM (inactive)	74.1 µM (inactive)	> 100 µM (inactive)
COC(=O)C1=C(C)N(NC(=O)c2ccccc2)C2(O)CCCC(=O)C12C (configuration not stated)		> 100 µM (inactive)	63.5 µM (inactive)	> 100 µM (inactive)	> 100 µM (inactive)	> 100 µM (inactive)	> 100 µM (inactive)		> 100 µM (inactive)		> 100 µM (inactive)	> 100 µM (inactive)	> 100 µM (inactive)		> 100 µM (inactive)				
CC(=O)OCC1OC(Nc2nc(O)n(C)c(=O)c2-c2csc(N)n2)C(OC(C)=O)C(OC(C)=O)C1OC(C)=O (configuration not stated)	67.6 µM (inactive)	> 100 µM (inactive)	> 100 µM (inactive)	> 100 µM (inactive)	> 100 µM (inactive)	> 100 µM (inactive)	> 100 µM (inactive)		> 100 µM (inactive)	> 100 µM (inactive)	> 100 µM (inactive)	> 100 µM (inactive)	> 100 µM (inactive)		> 100 µM (inactive)	> 100 µM (inactive)			
O=c1c2ccccc2sc2nc(O)nn12	> 100 µM (inactive)	> 100 µM (inactive)	> 100 µM (inactive)	> 100 µM (inactive)		> 100 µM (inactive)	> 100 µM (inactive)	> 100 µM (inactive)	> 100 µM (inactive)	> 100 µM (inactive)	> 100 µM (inactive)	> 100 µM (inactive)	> 100 µM (inactive)		> 100 µM (inactive)	> 100 µM (inactive)			
C/C(=C1/N=C(c2cc([N+](=O)[O-])ccc2Cl)N(C2=CC=C(Cl)CC2)C1=O)c1cc2ccccc2oc1=O	40.3 µM (inactive)	24.4 µM (inactive)	32.4 µM (inactive)	36.5 µM (inactive)	23.4 µM (inactive)	28.5 µM (inactive)	20.4 µM (inactive)	> 100 µM (inactive)		> 100 µM (inactive)	> 100 µM (inactive)	27.6 µM (inactive)	51.5 µM (inactive)		24.3 µM (inactive)	31.5 µM (inactive)			
COc1cccc2c1C(=O)c1c(O)c3c(c(O)c1C2=O)C[C@@](O)(C(=O)CO)CC3OC1CC(NCCCCC(OC(C)=O)OC(C)=O)C(O)C(C)O1 (some centres not stated)	0.00227 µM (active)	0.00157 µM (active)	0.00137 µM (active)	0.00259 µM (active)	0.00365 µM (active)	0.0048 µM (active)	0.00179 µM (active)		0.00322 µM (active)	0.00197 µM (active)	0.003 µM (active)	0.0046 µM (active)	0.00305 µM (active)			0.0021 µM (active)			
Cn1cnc([N+](=O)[O-])c1Sc1nccc(O)n1	> 100 µM (inactive)	> 100 µM (inactive)	> 100 µM (inactive)	> 100 µM (inactive)	> 100 µM (inactive)	> 100 µM (inactive)	> 100 µM (inactive)	> 100 µM (inactive)	> 100 µM (inactive)	> 100 µM (inactive)	> 100 µM (inactive)	> 100 µM (inactive)	> 100 µM (inactive)		> 100 µM (inactive)	> 100 µM (inactive)			
